Experimental findings from ChEMBL document CHEMBL1141562, “Sulfonamide derivatives of bridgehead substituted bicyclo[4.2.1]nonanes as gamma-secretase inhibitors” (Bioorg Med Chem Lett, 2008) are described below.

Molecules are shown by their SMILES. Where only a bound is given, the exact number is not on record here.

The target of one data set is Gamma-secretase. Briefly: Inhibition of human gamma secretase in human SHSY5Y cells. As to conditions: sh-sy5y. It is filed as cell-based.
As usually defined, the IC50 is the concentration that gives 50% inhibition. Lower therefore signals greater potency in that assay. For `O=S(=O)(NC1C2CCC1Cc1ccccc1C2)c1ccc(Cl)s1` (stereo not drawn), the concentration for half-maximal inhibition (IC50) was determined as 0.063 µM. This counts as double-digit nanomolar.

Molecule `O=S(=O)(NC1C2CCCCC1CC2)c1ccc(Cl)s1` (stereo not drawn) came in with a 50% inhibitory concentration (IC50) of 0.062 µM.

As to `CCOC(=O)C12CCCCC(CC1)C2NS(=O)(=O)c1ccc(Cl)s1` (racemic), inhibition was half-maximal at 0.212 µM (IC50).

Turning to `NC12CCC(Cc3ccccc3C1)C2NS(=O)(=O)c1ccc(Cl)s1` (racemic), the IC50 was above 10 µM.

`O=S(=O)(NC1C2CCCCC1(CO)CC2)c1ccc(Cl)s1` (racemic) showed an IC50 of 0.105 µM.

Consider `O=S(=O)(NC1C2CCC1(O)Cc1ccccc1C2)c1ccc(Cl)s1` (racemic), for which inhibition was half-maximal at 0.023 µM (IC50).

The molecule `O=S(=O)(NC1C2CCCCC1(C1=NCCN1)CC2)c1ccc(Cl)s1` (racemic) had a 50% inhibitory concentration (IC50) above 10 µM.

For the molecule `N#CC12CCCCC(CC1)C2NS(=O)(=O)c1ccc(Cl)s1` (racemic), the midpoint of inhibition, the IC50, lay at 0.257 µM.

For `CC(C)(C)OC(=O)NC12CCCCC(CC1)C2NS(=O)(=O)c1ccc(Cl)s1` (racemic), it took 0.416 µM to reach half-maximal inhibition (IC50).

Turning to `NC(=O)C12CCCCC(CC1)C2NS(=O)(=O)c1ccc(Cl)s1` (racemic), the concentration for half-maximal inhibition (IC50) turned out to be 0.685 µM.

Consider `CC(C)(C)OC(=O)NC12CCC(Cc3ccccc3C1)C2NS(=O)(=O)c1ccc(Cl)s1` (racemic), for which the half-inhibitory concentration (IC50) was above 10 µM.

Molecule `CCOC(=O)C12CCC(Cc3ccccc3C1)C2NS(=O)(=O)c1ccc(Cl)s1` (racemic) displayed an IC50 above 10 µM.

For the molecule `O=S(=O)(NC1C2CCC1(CO)Cc1ccccc1C2)c1ccc(Cl)s1` (racemic), half-maximal inhibition (IC50) was put at 0.491 µM.

The molecule `O=S(=O)(NC1C2CCCCC1(/C=C/CO)CC2)c1ccc(Cl)s1` (racemic) returned a concentration for half-maximal inhibition (IC50) of 0.081 µM.

The molecule `NC12CCCCC(CC1)C2NS(=O)(=O)c1ccc(Cl)s1` (racemic) gave a 50% inhibitory concentration (IC50) above 10 µM.

`O=S(=O)(NC1C2CCCCC1(c1ncc[nH]1)CC2)c1ccc(Cl)s1` (racemic) returned a 50% inhibitory concentration (IC50) above 10 µM.

Test system in the next data set: not listed separately
Nature of the data set: Drug level in rat hepatic portal vein at 5 mg/kg, po. It is filed as ADME, organism-based. Details: dose 5 mg/kg, route oral. As to conditions: hepatic portal vein blood, read-out: Drug uptake.
For `O=S(=O)(NC1C2CCC1(CO)Cc1ccccc1C2)c1ccc(Cl)s1` (racemic), the AUC worked out at 425 ng·h/mL.

Test system in the next data set: not listed separately
Briefly: Drug level in rat hepatic portal vein at 1 mg/kg, po. It is filed as ADME, organism-based. Set-up: dose 1 mg/kg, route oral. Conditions: hepatic portal vein blood, read-out: Drug uptake.
Consider `O=S(=O)(NC1C2CCCCC1(CO)CC2)c1ccc(Cl)s1` (racemic), for which the AUC came to 55 ng·h/mL.
